Test [1] has as its system Fabry iPSC-derived cardiomyocytes. The experiment in a line: GL-3 content of Fabry iPSC-derived cardiomyocytes (beating EBs) by mass spectrometry. Type of test: cell-based, human. The method, then: GCS452 [(S)-quinuclidin-3-yl (2-(2-(4-fluorophenyl)thiazol-4-yl)propan-2-yl) carbamate], a selective glucosylceramide synthase inhibitor, was tested to evaluate its potential to prevent GL-3 accumulation in Fabry iPSC-derived cardiomyocytes. EBs were treated eighteen days after induction of cardiac differentiation. At this time point, accumulation was low in the FD cardiomyocytes (FIG. 4). The FD and WT cardiomyocytes were treated with 1 μM GCS452 for 15 days.
It was next determined whether the compound could reduce levels of accumulated GL-3 when significant GL-3 accumulation is present at the start of treatment (FIG. 4). […]
In parallel, it was investigated whether agalsidase beta could clear accumulated GL-3 in one month old Fabry cardiomyocytes. EBs were treated with 0.3p g/mL of agalsidase beta for 5 days and GL-3 content was analyzed as described for GCS452. GL-3 vacuoles were not detected in treated Fabry cardiomyocytes using ICC (FIG. 5C). […]
Pellets containing EBs were extracted in a solution of acetonitrile:methanol (1:1). The extracts were directly injected onto a 2.1×100 mm, 1.7 μM BEH Hilic column (Waters), resolved with a Waters Acquity UPLC system, and analyzed for C16, C18, C20, C22, C23, C24, C24:1, C24(OH), and C24:1(OH) GL-3 isoforms and lyso-GL-3 in multiple-reaction monitoring (MRM) and positive-ion mode with an API-4000 mass spectrometer (ABSciex, Framingham, Mass.). […]

Another test relates to Fabry patients. As to conditions: cited from earlier work.
Test [2] deals with Fabry iPSC-derived cardiomyocytes. Put plainly: Immunocytochemistry of GL-3 and Lamp2 in Fabry iPSC-derived cardiomyocytes. It is filed as cell-based, human. The method, then:
It was next determined whether the compound could reduce levels of accumulated GL-3 when significant GL-3 accumulation is present at the start of treatment (FIG. 4). Twenty eight post-start of differentiation, beating EBs were treated with 1 μM of GCS452 for 15 days. The EBs were dissociated and plated at the end of the treatment, and ICC analysis was performed. […] GL-3 reduction in treated Fabry EBs was confirmed by mass spectrometry. While there was a 13 to 18 fold increase of GL-3 in untreated FD cardiomyocytes compared to WT, GL-3 levels increased by 4.5 to 5.5 fold in treated FD cardiomyocytes after 15 days of treatment with GCS452. This corresponds to a 2.3 to 2.8 fold reduction in accumulated GL-3 as compared to GL-3 levels at the start point (TO) of treatment (FIG. 5B). In parallel, it was investigated whether agalsidase beta could clear accumulated GL-3 in one month old Fabry cardiomyocytes. EBs were treated with 0.3p g/mL of agalsidase beta for 5 days and GL-3 content was analyzed as described for GCS452. GL-3 vacuoles were not detected in treated Fabry cardiomyocytes using ICC (FIG. 5C). […] One month old beating EBs were harvested and dissociated by using the embryoid body dissociation kit (Miltenyi Biotech, Bergisch Gladbach). Dissociated cells were plated on matrigel coated dishes. Five days latter, cells were fixed using 8% de formaldehyde solution (Sigma-Aldrich, St. Louis, Mo.) in DPBS (Gibco, Carlsbad, Calif.) and permeabilized in 0.05% Tween 20 (Sigma Life Science, St. Louis, Mo.) 20 minutes at room temperature. The samples were incubated with the primary antibodies over night at 4° C. Secondary antibodies were applied one hour at room temperature. Primary antibodies used were mouse monoclonal IgG1 directed against—Actinin, at the final dilution 1/1500 (Sigma Life Science, St. Louis, Mo.), rat monoclonal IgM directed against GL-3/CD77, at the final dilution 1/300 (Abcam, Cambridge, US) and mouse monoclonal IgG1 directed against LAMP2, at the final dilution 1/500 (Santa Cruz Biotechnology, Dallas, Tex.). The secondary antibodies were Alexa Fluor 488 goat anti-mouse IgG (Molecular Probes, Carlsbad, Calif.) Alexa Fluor 555 goat anti-mouse IgG (Molecular Probes, Carlsbad, Calif.) and Alexa Fluor 488 goat anti-rat IgG (Molecular Probes, Carlsbad, Calif.). They were used at the final dilution 1/1000.

The subject of test [3] is K14 mouse model of type 2 Gaucher disease. As to conditions: cited from earlier work.
The mark [4] stands for this setting: 0.3p g/mL for 5 days, one month old Fabry cardiomyocytes.
The mark [5] stands for this setting: 3 μg/mL, one month old Fabry iPSC-derived cardiomyocytes, end of treatment.
The mark [6] stands for this setting: 1 μM for 15 days, treatment from day 28.

Entries after “also recorded” stand apart in the source; their conditions may differ. Where two headings read alike, the source gives them in different places.

As to “agalsidase beta: recombinant α-GalA, enzyme replacement therapy approved for the treatment of Fabry disease”, the “GL-3 clearance in Fabry cardiomyocytes” value in test [1] (setting [4]) is recorded as “Complete clearance; also recorded: clearance of GL-3”. Further, the “GL-3 deposits / accumulation in cardiomyocytes” value in the test on Fabry patients (Fabry patients, cardiac biopsies, after 5 and 12 months of treatment) is on record as “not reduced; also recorded: no effect”. The “GL-3 deposits in capillary endothelium / heart microvasculature” value in the test with Fabry patients (Fabry patients) is recorded as “effectively clears”. The “GL-3 deposits in capillary endothelium / heart microvasculature” value with Fabry patients (Fabry patients, listed as Agalsidase beta) is “consistently clear”. Also, in the test with Fabry patients (treated Fabry patients), the left ventricular mass result is “Modest reductions”. Moreover, in test [2] (setting [5]), the “GL-3 content (ICC), FIG. 5C legend” value is “not or was very slightly detectable”; the “number of Lamp2 vacuoles and intensity of the signal (ICC), FIG. 5C legend” value is “reduced”. In addition, in test [2] (setting [4]), the “GL-3 vacuoles (ICC)” value is “not detected”.

As to `CC(C)(NC(=O)O[C@@H]1CN2CCC1CC2)c1csc(-c2ccc(F)cc2)n1` [GCS452, (S)-quinuclidin-3-yl (2-(2-(4-fluorophenyl)thiazol-4-yl)propan-2-yl) carbamate], in test [1] (1 μM for 15 days, treatment from day 18 after induction of cardiac differentiation), the “GL-3 levels / accumulation in treated FD cardiomyocytes (prevention)” value is “close to the physiological levels of WT untreated cells”. Moreover, in test [2] (setting [6]), the “GL-3 labeling (ICC)” value is given as “not or was very slightly detectable; also recorded: significant reduction” and the “Lamp2 signal intensity / number of Lamp2 vacuoles (ICC)” value is “reduced; also recorded: concomitant decrease”.

Turning to `CC(C)(NC(=O)OC1CN2CCC1CC2)c1cccc(-c2ccc(F)cc2)c1` (centres unmarked) [Gz161, Quinuclidin-3-yl (2-(4′-fluoro-[1,1′-biphenyl]-3-yl)propan-2-yl)carbamate], in test [3], the brain neuropathology result is “reduced” and the lifespan entry is “extended”. The “brain GluCer and GluSph” value in test [3] (see Examples 122-125 of WO2012/129084) is on record as “reduce”.

These data come from patent US20220409595A1, “GLUCOSYLCERAMIDE SYNTHASE INHIBITORS” (GENZYME CORPORATION, priority 2013, published 2022).
